Earlier results as cited in patent US20130317456A1, “Transdermal Delivery Systems” (Durect Corporation, priority 2006, published 2013).

Conditions: octanol/water partition coefficient

Structure (SMILES) | log P
CCCN1CCCC[C@H]1C(=O)Nc1c(C)cccc1C [Ropivacaine] | around 2.9
Cc1cccc(C)c1NC(=O)C1CCCCN1C (centres unmarked) [Mepivacaine] | around 1.95
